# From patent US20250057808A1, “COMPOSITION COMPRISING BETA LACTAM FOR TREATING ALCOHOL DEPENDENCE AND ALCOHOL ASSOCIATED DISEASES OR CONDITIONS” (Temple University of the Commonwealth System of Higher …, priority 2023, published 2025)
# “Also recorded” adds a separate entry of the source.
# Columns and labels:
# [1] = test system: GLT-1; assay: Western blot GLT-1 expression in NAc-core, NAc-shell and liver (50 mg/kg study); type: in vivo, P rats; conditions: MC-100093 50 mg/kg or ceftriaxone 200 mg/kg i.p. 5 days; for Protein expression of GLT-1 in the NAc-shell: vs Ethanol group
# Experimental: We used micro-punch procedure to dissect the subregions of the NAc such as NAc-core and NAc-shell as well as the subregions of prefrontal cortex such as infralimbic (IL) and prelimbic (PL) from the brain on day 6 after the last injection day. P rats were removed from the cage and rapidly euthanized by CO2 inhalation followed by rapid decapitation with a guillotine. Brains were isolated and immediately frozen on dry ice and stored at −80° C. The stereotaxic coordinates provided by Paxinos and colleague's rat brain stereotactic atlas was used to isolate NAc-core and NAc-shell using a cryostat apparatus (−20° C.), which then kept at −80° C. for later western blot analyses.
# Western Blot assay was performed to measure changes in the expression of GLT-1, xCT, mGluR1, mGluR5, PPAR-α, PPARγ, GAPDH and β-tubulin in the NAc-core and NAc-shell as described in previous publications. A lysis buffer containing protease and phosphatase inhibitors was used to generate a homogenate of liver, Nac-core, and Nac-shell samples. The amount of protein was quantified using a detergent compatible protein assay (Bio-Rad, Hercules, CA, USA) for each sample. Samples were mixed with laemmli dye and loaded with equal amounts on polyacrylamide gels (10%), which separated the proteins using electrophoresis. After that, polyvinylidene difluoride (PVDF) membranes were used to transfer the proteins electrophoretically from the gels. Membranes were incubated in 5% free-fat milk in Tris-buffered saline with Tween-20 (TBST) for 30-60 minutes at room temperature. Membranes were then incubated with appropriate primary antibodies overnight at 4° C.: rabbit anti-GLT-1 (1:5000, Abcam, ab41621), rabbit anti-xCT (1:2000, Abcam, ab175186), rabbit anti-mGluR1 (1:1000, Abcam, ab82211), rabbit anti-mGluR5 (1:1000, Abcam, ab76316), rabbit anti-PPAR-α (1:1000, Abcam, ab24509), and rabbit anti-PPARγ (1:1000, Abcam, ab209350). Mouse anti-β-tubulin (1:1000; BioLegend) was used as a loading control antibody for the brain samples and rabbit anti-GAPDH (1:5000; cell signaling) was used as a loading control antibody for the liver samples. Membranes were washed five times on the next day with TBST followed by incubation with appropriate secondary antibody (1:5000) for 90 minutes at room temperature. Chemiluminescent reagents (Super Signal West Pico, Pierce Inc.) were used to detect the proteins using a GeneSys imaging system to develop the digitized blot images. Water-control group data were represented as 100% and all other values were expressed relative to control group to detect changes in the expression of the protein of interest in the brain and liver samples.
# (§1) All statistical analyses were conducted with Graphpad Prism software, with p-values of 0.05 or less being statistically significant. We performed a two-way (mixed model) ANOVA followed by Bonferroni multiple comparison post-hoc test to analyze 24 h ethanol consumption, 24 h water consumption, and daily body weight. For the Western blot and oil red O staining analysis, we performed one-way ANOVA with Newman-Keuls as a post hoc multiple comparison test to measure differences between groups as a percentage (relative to control values).
# [2] = test system: fat content in the liver; assay: Liver Oil Red O staining (fat content); type: in vivo, P rats; conditions: MC-100093 50 mg/kg or ceftriaxone 200 mg/kg i.p. 5 days, control, ethanol, ethanol-CEF groups
# Experimental: To measure the fat content in the liver sections, we used Oil Red O (Sigma, CAS Number 1320-06-5) staining on 10 μm thick formalin-fixed liver sections and placed in slides for further staining. The slides were stained with freshly prepared Oil Red O working solution 15 minutes then rinsed with 60% isopropanol. Slides were then rinsed with distilled water and mounted in aqueous mounting media and prepared for imaging. The degree of Oil Red O staining was determined at 20× magnification using a color video camera attached to an Olympus VS120 slide scanning microscope. Olympus OlyVIA software was used to analyze the images. The lipid droplets were quantified using Image J pro (NIH). Data are presented as the mean+SEM of the Oil Red O staining for each group.
# as §1
smiles,measurement,setting,value
C[C@@H](O)[C@H]1C(=O)N[C@@H]1[C@@H](C)C(=O)N1CCN(C)CC1 [MC-100093],Protein expression of GLT-1 in the liver,[1],normalized GLT-1 level; also recorded: normalize the PPAR-α and GLT-1 levels in the liver
same,Protein expression of GLT-1 in the NAc-core,"[1]; among Control, Ethanol, Ethanol-MC, Ethanol-CEF",non-significant difference; also recorded: no significant difference
same,Protein expression of GLT-1 in the NAc-shell,[1],normalized GLT-1 and xCT levels in the NAc-shell
same,Protein expression of GLT-1 in the NAc-shell,[1]; listed as MC-100095,significantly increased
same,Liver fat content (Oil Red O stained fat droplets),[2],"no significant difference in fat content between control, ethanol-MC, and ethanol-CEF groups; also recorded: significantly higher fat droplet content in ethanol group (p<0.05) compared to control, ethanol-MC or ethanol-CEF groups; also recorded: alleviated the liver steatosis"
